We go through 5 compounds from PMC3210473 (Biotechnology and bioengineering, 2011).

In general, EC50 refers to the concentration needed to bring the measured effect to its halfway point. A low value points to greater potency.

For assay [1], the target named is T1, sensor 6 (ERα 312-595) (Homo sapiens, UniProt P03372).
T1 sequence (P03372 312-595): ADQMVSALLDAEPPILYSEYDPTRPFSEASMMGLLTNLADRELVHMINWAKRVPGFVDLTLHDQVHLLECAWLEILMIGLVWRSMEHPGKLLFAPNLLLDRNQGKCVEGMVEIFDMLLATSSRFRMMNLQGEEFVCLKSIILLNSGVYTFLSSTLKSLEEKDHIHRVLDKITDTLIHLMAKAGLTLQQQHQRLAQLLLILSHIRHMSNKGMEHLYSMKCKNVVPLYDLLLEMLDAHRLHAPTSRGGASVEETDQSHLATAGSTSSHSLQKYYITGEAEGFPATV
As to the kind of experiment: split mVenus complementation, flow cytometry. The format is cell-based.

The target in assay [2] is T1, sensor 6 (ERα 312-595). As to the kind of experiment: split mVenus complementation, flow cytometry. It is filed as cell-based. The settings on record: transfected HeLa cells, up to […] ligand, […] h. Background: A flow cytometer gives signals particle by particle.

Take `C[C@]12CC[C@@H]3c4cc(O)c(O)cc4CC[C@H]3[C@@H]1CC[C@@H]2O` [2-Hydroxyestradiol]: the EC50 in assay [1] was determined as 0.55 ± 0.1 µM.

The compound `C[C@]12CC[C@@H]3c4ccc(O)c(O)c4CC[C@H]3[C@@H]1CC[C@@H]2O` [4-Hydroxyestradiol] registered an EC50 in assay [1] of 0.058 ± 0.0047 µM.

As for `C/C=C(/C(=C/C)c1ccc(O)cc1)c1ccc(O)cc1` [Dienestrol], the concentration giving a half-maximal response (EC50) in assay [1] is 0.0044 ± 0.00087 µM.

Turning to `O=c1c(-c2ccc(O)cc2)coc2cc(O)ccc12` [daidzein], the “split mVenus complementation, flow cytometry” value in assay [2] is recorded as “both of which caused an increase in fluorescence at micromolar concentrations”.

`Clc1ccc(C(c2ccccc2Cl)C(Cl)(Cl)Cl)cc1` (centres unmarked) [o,p’-DDT]: in assay [2], the “split mVenus complementation, flow cytometry” value was “The pesticide o,p’-DDT, and a PCB compound also displayed activation beginning at micromolar levels”.
